Our source for the IC50 values is US20240116985A1, “STAPLED PEPTIDES AND METHODS THEREOF” (priority 2020, published 2024).

pIC50: −log10 of the molar value.

One experiment has as its target T1, full-length beta-Catenin (Uniprot ID P35222) (Homo sapiens, UniProt P35222).
T1 construct: 10 nM full-length beta-Catenin (Uniprot ID P35222)
T1 sequence (P35222 1-781): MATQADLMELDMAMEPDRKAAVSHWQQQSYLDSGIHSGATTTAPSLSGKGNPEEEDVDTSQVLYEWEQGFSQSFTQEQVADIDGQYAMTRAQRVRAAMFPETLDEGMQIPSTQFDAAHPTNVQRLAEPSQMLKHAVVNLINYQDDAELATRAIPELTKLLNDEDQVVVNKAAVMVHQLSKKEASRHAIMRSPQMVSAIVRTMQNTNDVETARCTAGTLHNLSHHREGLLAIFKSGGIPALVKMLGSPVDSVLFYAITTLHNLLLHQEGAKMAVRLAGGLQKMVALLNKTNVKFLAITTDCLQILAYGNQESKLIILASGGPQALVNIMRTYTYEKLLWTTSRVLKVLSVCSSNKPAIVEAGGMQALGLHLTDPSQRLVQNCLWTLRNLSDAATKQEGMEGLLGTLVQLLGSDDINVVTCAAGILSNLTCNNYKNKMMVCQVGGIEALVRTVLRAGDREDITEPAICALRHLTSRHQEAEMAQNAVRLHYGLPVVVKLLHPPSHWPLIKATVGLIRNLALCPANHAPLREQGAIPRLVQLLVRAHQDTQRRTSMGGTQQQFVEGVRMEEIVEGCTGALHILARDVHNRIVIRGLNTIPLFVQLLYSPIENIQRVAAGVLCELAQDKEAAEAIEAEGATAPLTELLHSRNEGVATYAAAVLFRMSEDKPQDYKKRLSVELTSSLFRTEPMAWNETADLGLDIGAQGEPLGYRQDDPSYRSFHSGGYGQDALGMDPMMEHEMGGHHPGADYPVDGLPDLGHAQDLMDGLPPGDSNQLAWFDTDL
The experiment can be described thus: Fluorescence polarization IC50 (beta-catenin / 5FAM-TCF4 10-53 competition). The class given is binding. As to conditions: beta-Catenin FP IC50 (nM), fluorescence polarization.
The molecule `CC(=O)N1CC2CC1C(=O)N[C@@H](CC(=O)O)C(=O)N[C@@H](CC(C)(C)C)C(=O)NC1(CCCCCCCCOC(=O)N3CC[C@@](C(=O)N[C@@H](Cc4ccsc4)C(=O)N[C@@H](Cc4csc5ccccc45)C(=O)N[C@@H](CCC(N)=O)C(N)=O)(C3)NC(=O)[C@H](CC(C)C)NC(=O)[C@H](Cc3ccccc3)NC(=O)[C@H](C)NC(=O)[C@H](C)NC(=O)[C@H](CN(CC(=O)O)CC(F)(F)F)NC(=O)[C@H](CC(=O)O)NC1=O)CCCCCCOc1cccc(c1)CC(=O)O2` (stereo partly drawn) [I-2406, Ac-HypPAc3OAllyl-Asp-Npg-B5-Asp-TfeGA-Ala-Ala-Phe-Leu-PyrS2-3Thi-BztA-Gln-NH2] displayed a concentration for half-maximal inhibition (IC50) of 242 nM.

Still in this experiment, the particulars now being: fluorescence polarization; read-out: beta-Catenin FP IC50.
Regarding `CC(C)C[C@@H]1NC(=O)[C@H](Cc2ccccc2)NC(=O)[C@H](C)NC(=O)[C@H](C)NC(=O)[C@H](CN(CC(=O)O)CC(F)(F)F)NC(=O)[C@H](CC(=O)O)NC(=O)C2(CCCCCCCCOC(=O)N3CC[C@@](C(=O)N[C@@H](Cc4ccsc4)C(=O)N[C@@H](Cc4csc5ccccc45)C(=O)N[C@@H](CCC(N)=O)C(N)=O)(C3)NC1=O)CCCCCCOc1cccc(c1)C(=O)N1CCC[C@H]1C(=O)N[C@@H](CC(=O)O)C(=O)N[C@@H](CC(C)(C)C)C(=O)N2` (stereo partly drawn) [I-2377, ProBzAm3OAllyl-Asp-Npg-B5-Asp-TfeGA-Ala-Ala-Phe-Leu-PyrS2-3Thi-BztA-Gln-NH2], the pIC50 was 6.01.
The same measure, in the same setting: the figure for `CC(=O)N1CCC[C@]12CC=CCCCC1(CCCC=CCCCOC(=O)N3CC[C@@](C(=O)N[C@@H](Cc4ccccc4C(F)(F)F)C(=O)N[C@@H](Cc4csc5ccccc45)C(=O)N[C@@H](CCC(N)=O)C(=O)N[C@@H](CC(C)C)C(=O)NC4(C(N)=O)CC4)(C3)NC(=O)[C@H](CC(C)C)NC(=O)[C@H](Cc3ccccc3)NC(=O)[C@H](C)NC(=O)[C@H](C)NC(=O)[C@H](Cc3cccc(C(=O)O)c3)NC(=O)[C@H](CC(=O)O)NC1=O)NC(=O)[C@H](CC(C)(C)C)NC(=O)[C@H](CC(=O)O)NC2=O` (stereo partly drawn) [I-2389, Ac-PL3-Asp-Npg-B5-Asp-3COOHF-Ala-Ala-Phe-Leu-PyrS2-2F3MeF-BztA-Gln-Leu-Cpg-NH2] is 7.14; for `CC(C)C[C@@H]1NC(=O)[C@H](Cc2ccccc2)NC(=O)[C@H](C)NC(=O)[C@H](C)NC(=O)[C@H](CN(CC(=O)O)CC(F)(F)F)NC(=O)[C@H](CC(=O)O)NC(=O)C2(CCCCCCCCOC(=O)N3CC[C@@](C(=O)N[C@@H](Cc4ccsc4)C(=O)N[C@@H](Cc4csc5ccccc45)C(=O)N[C@@H](CCC(N)=O)C(N)=O)(C3)NC1=O)CCCCCCOc1cccc(c1)CC(=O)N[C@@H](CC(=O)O)C(=O)N[C@@H](CC(C)(C)C)C(=O)N2` (stereo partly drawn) [I-2404, PAc3OAllyl-Asp-Npg-B5-Asp-TfeGA-Ala-Ala-Phe-Leu-PyrS2-3Thi-BztA-Gln-NH2] it is 6.11.
In the case of `CC(C)C[C@@H]1NC(=O)[C@H](Cc2ccccc2)NC(=O)[C@H](C)NC(=O)[C@H](C)NC(=O)[C@H](CN(CC(=O)O)CC(F)(F)F)NC(=O)[C@H](CC(=O)O)NC(=O)C2(CCCCCCCCOC(=O)N3CC[C@@](C(=O)N[C@@H](Cc4ccsc4)C(=O)N[C@@H](Cc4csc5ccccc45)C(=O)N[C@@H](CCC(N)=O)C(N)=O)(C3)NC1=O)CCCCCCOc1cccc(c1)CC(=O)N1CCC[C@H]1C(=O)N[C@@H](CC(=O)O)C(=O)N[C@@H](CC(C)(C)C)C(=O)N2` (stereo partly drawn) [I-2405, ProPAc3OAllyl-Asp-Npg-B5-Asp-TfeGA-Ala-Ala-Phe-Leu-PyrS2-3Thi-BztA-Gln-NH2], the pIC50 was 6.25.
Consider `CC(=O)N1CCC[C@]12CC=CCCCC1(CCCC=CCCCOC(=O)N3CC[C@@](C(=O)N[C@@H](Cc4ccsc4)C(=O)N[C@@H](Cc4csc5ccccc45)C(=O)N[C@@H](C)C(N)=O)(C3)NC(=O)[C@H](CC(N)=O)NC(=O)[C@H](Cc3ccccc3)NC(=O)[C@H](C)NC(=O)C(C)(C)NC(=O)[C@H]([C@@H](C)O)NC(=O)[C@H](CC(N)=O)NC1=O)NC(=O)[C@H](CC(C)(C)C)NC(=O)[C@H](CC(=O)O)NC2=O` (stereo partly drawn) [I-2411, Ac-PL3-Asp-Npg-B5-Asn-Thr-Aib-Ala-Phe-Asn-PyrS2-3Thi-BztA-Ala-NH2], for which the pIC50 is 6.85.
